The nature of the series: Pharmacokinetic study in rats after oral administration of GR extract (UHPLC-MS/MS of plasma). The class given is in vivo, Sprague-Dawley rats. As to conditions: for AUC(0-inf) / AUC(0-t) / Cmax / Tmax / k el / half-life: male, Sprague-Dawley, po; for AUC(0-inf) / AUC(0-t) / Cmax / Tmax / k el / half-life / CL (clearance) / Vz (apparent volume of distribution) / T1/2: rat plasma, GR extract 9.6 g/kg intragastric gavage, mean ± SD, n = 6; for k el: read-out: λz (terminal elimination rate constant) (converted); for half-life: rat, plasma, 9.6 g/kg; for plasma concentration relative to LLOQ: rat plasma following gavage of GR extract. How it is done:
To each 100 μL plasma sample, 20 μL of methanol and 20 μL of IS (astragalin, 1 μg/mL) were added and vortexed for 1 min. Extraction was carried out with 800 μL of methanol, followed by vortexing for 5 min at room temperature. The sample was centrifuged at 12,000× g for 10 min. Subsequently, 750 µL of supernatant was transferred to a fresh tube and completely dried under flow nitrogen. The residue was reconstituted in 150 μL of 50% methanol (v/v), vortexed for 5 min, and centrifuged for 10 min. Finally, the resulting supernatant was injected into the UHPLC-MS/MS instrument.
In this study, six SPF-grade male Sprague-Dawley rats (six weeks old, 220 ± 10 g), supplied by Beijing HUAFUKANG Bioscience Co., Inc. (Beijing, China), were housed for seven days under controlled conditions (23 ± 2 °C, 50 ± 10% relative humidity) with ad libitum access to food and water. All rats underwent a 12 h fasting period before dosing, but maintained free access to water. This study’s animal care protocols and experimental procedures adhered to institutional policies and were formally authorized by the Animal Ethics Review Committee of Tianjin University of Traditional Chinese Medicine (Tianjin, China; Ref. TCM-LAEC2025003w1430). Each rat received a GR suspension at a dosage of 9.6 g/kg via intragastric gavage. Prior to dosing, 0.2 mL of blood was drawn from the retro-orbital plexus into a heparin-coated tube. Subsequent samples were collected at 0, 0.03, 0.08, 0.17, 0.25, 0.5, 0.75, 1, 2, 4, 6, 8, 12, 24, 36, and 48 h post-dose. Plasma was separated by centrifugation (6000× g, 10 min, 4 °C) and stored at −80 °C until further analysis.
Plasma concentrations of the fourteen target analytes were determined using the MassHunter Workstation (Agilent, USA; ver. B.09.00). Pharmacokinetic analysis was conducted with DAS software (Medical College of Wannan, Wuhu, Anhui, China; v. 3.0) using non-compartmental model to calculate pharmacokinetic parameters, including Cmax, Tmax, AUC(0–t), AUC(0–∞), clearance (CL), the apparent volume of distribution (Vz), and terminal elimination rate constant (λz) for each analyte. All parameters were summarized as mean ± standard deviation (SD) (n = 6), with the SD representing inter-individual variability in the pharmacokinetic behavior.

These results are taken from paper PMC12655633, “Simultaneous Quantification of Multiple Analytes in Rat Plasma by UHPLC–MS/MS Following Oral Administration of Gastrodiae Rhizoma Extract for Pharmacokinetic Evaluation” (Molecules, 2025).

By AUC(0-inf) is commonly meant the area under the concentration-time curve extrapolated to infinity. The low end stands for less exposure, the high end for more exposure. Usually AUC(0-t) stands for the area under the concentration-time curve up to a stated or last time point. Higher therefore signals more exposure. The term Cmax denotes the highest concentration seen after dosing. A word on the Tmax: it is the time at which the peak concentration occurs. Broadly, the half-life is the time needed for the level to fall by half in the phase considered. High values mean slow decline, low ones rapid decline. Turning to `OCc1ccc(O)cc1` [p-Hydroxybenzyl alcohol], the total exposure AUC(0-inf) turned out to be 674000 ng·h/mL, the AUC(0-t) was found to be 672000 ng·h/mL, the concentration peaked (Cmax) at 90500 ng/mL and the Tmax came out at 1.63 ± 0.59 h. In addition, the k el was 3.89e-05 s⁻¹, the half-life was 5.31 ± 1.55 h, the “CL (clearance)” value came to 0.5 ± 0.17 mL/min/kg and the “Vz (apparent volume of distribution)” value is on record as 0.24 ± 0.10 L/kg.
`O=C(O)c1ccc(O)cc1` [p-Hydroxybenzoic acid]: the AUC(0-inf) came to 1600 ± 384 ng·h/mL, the AUC(0-t) was found to be 1580 ± 381 ng·h/mL, the Cmax was determined as 442 ± 147 ng/mL and the Tmax came out at 0.11 ± 0.05 h. The k el is 4.44e-05 s⁻¹, the half-life was 6.21 ± 3.33 h, the “CL (clearance)” value was 218 ± 47.2 mL/min/kg and the “Vz (apparent volume of distribution)” value was 116.74 ± 60.67 L/kg.
In the case of `O=C(CC(O)(CC(=O)OCc1ccc(O[C@@H]2O[C@H](CO)[C@@H](O)[C@H](O)[C@H]2O)cc1)C(=O)OCc1ccc(O[C@@H]2O[C@H](CO)[C@@H](O)[C@H](O)[C@H]2O)cc1)OCc1ccc(O[C@@H]2O[C@H](CO)[C@@H](O)[C@H](O)[C@H]2O)cc1` [ParishinA, Parishin A], the AUC(0-inf) was 572 ± 271 ng·h/mL, the exposure AUC(0-t) turned out to be 531 ± 256 ng·h/mL, the Cmax was 210 ± 92.2 ng/mL and the time of peak concentration (Tmax) is 0.22 ± 0.07 h. The k el is 1.39e-05 s⁻¹, the half-life is 3.62 ± 0.26 h, the “CL (clearance)” value is 676.3 ± 244.2 mL/min/kg and the “Vz (apparent volume of distribution)” value was 808.82 ± 409.11 L/kg.
Turning to `O=C(O)CC(O)(CC(=O)OCc1ccc(O[C@@H]2O[C@H](CO)[C@@H](O)[C@H](O)[C@H]2O)cc1)C(=O)OCc1ccc(O[C@@H]2O[C@H](CO)[C@@H](O)[C@H](O)[C@H]2O)cc1` (some centres unmarked) [Parishin B], the AUC(0-inf) was found to be 460 ± 222 ng·h/mL, the AUC(0-t) was 460 ± 222 ng·h/mL, the Cmax is 319 ± 157 ng/mL and the Tmax stood at 0.1 ± 0.06 h. Also, the k el is 7.22e-05 s⁻¹, the half-life was 2.67 ± 0.26 h, the “CL (clearance)” value is 899.2 ± 438.3 mL/min/kg and the “Vz (apparent volume of distribution)” value was determined as 215.10 ± 119.59 L/kg.
As to `O=C(O)CC(O)(CC(=O)OCc1ccc(O[C@@H]2O[C@H](CO)[C@@H](O)[C@H](O)[C@H]2O)cc1)C(=O)O` (some centres unmarked) [Parishin E], the AUC(0-inf) stood at 13100 ng·h/mL, the AUC(0-t) was found to be 11600 ng·h/mL, the Cmax came out at 2350 ± 1100 ng/mL and the Tmax was found to be 0.75 ± 0.01 h. The k el was 1.39e-05 s⁻¹, the half-life is about 8 h, the “CL (clearance)” value worked out at 26.3 ± 5.83 mL/min/kg and the T1/2 worked out at 8.08 ± 3.33 h. Moreover, the “Vz (apparent volume of distribution)” value is on record as 41.00 ± 29.24 L/kg.
For the compound `OCc1ccc(O[C@@H]2O[C@H](CO)[C@@H](O)[C@H](O)[C@H]2O)cc1` [Gastrodin], the AUC(0-inf) stood at 145000 ng·h/mL, the AUC(0-t) came out at 143000 ng·h/mL, the highest level (Cmax) was 31500 ng/mL and the Tmax was 1.5 ± 0.55 h. Also, the k el was 1.67e-05 s⁻¹, the half-life was about 8 h, the “CL (clearance)” value came out at 2.33 ± 0.5 mL/min/kg and the T1/2 amounted to 8.30 ± 1.14 h. For the same compound, the “Vz (apparent volume of distribution)” value turned out to be 4.29 ± 3.24 L/kg.
As for `COc1cc(C=O)cc(OC)c1O` [Syringaldehyde], the “plasma concentration relative to LLOQ” value is given as “below the LLOQ at the majority of time points”.
For the compound `O=Cc1ccc(O)cc1` [p-Hydroxybenzaldehyde], the area under the curve AUC(0-inf) came out at 59.1 ± 21 ng·h/mL, the AUC(0-t) stood at 56.7 ± 23.1 ng·h/mL, the Cmax stood at 22.5 ± 3.04 ng/mL and the Tmax amounted to 0.25 ± 0.01 h. For the same compound, the k el is 7.78e-05 s⁻¹, the half-life was 5.86 ± 2.99 h, the “CL (clearance)” value came to 6285.8 ± 2280.5 mL/min/kg and the “Vz (apparent volume of distribution)” value was determined as 4220.87 ± 5603.54 L/kg.
On to `COc1ccc(-c2cc(=O)c3c(OC)c(OC)c(OC)c(OC)c3o2)cc1OC` [Nobiletin], for which the “plasma concentration relative to LLOQ” value is given as “below the LLOQ at the majority of time points”.
Turning to `O=Cc1ccc(O)c(O)c1` [3,4-Dihydroxybenzaldehyde], the “plasma concentration relative to LLOQ” value is given as “below the LLOQ at the majority of time points”.
`COc1cc2c(cc1OC)[C@@H](Cc1ccc(Oc3cc(C[C@@H]4c5cc(OC)c(OC)cc5CCN4C)ccc3O)cc1)N(C)CC2` [Dauricine]: the “plasma concentration relative to LLOQ” value was “below the LLOQ at the majority of time points”.
For the compound `Nc1ncnc2c1ncn2[C@@H]1O[C@H](CO)[C@@H](O)[C@H]1O` [Adenosine], the “plasma concentration relative to LLOQ” value is given as “below the LLOQ at the majority of time points”.
Regarding `NC(=O)c1cccnc1` [Nicotinamide], the AUC(0-inf) is 59 ± 18.5 ng·h/mL, the AUC(0-t) stood at 59 ± 18.5 ng·h/mL, the peak level (Cmax) was 25 ± 14.2 ng/mL and the Tmax amounted to 0.5 ± 0.02 h. Also, the k el is 6.11e-05 s⁻¹, the half-life was 2.74 ± 0.42 h, the “CL (clearance)” value was 6170.7 ± 2057.5 mL/min/kg and the “Vz (apparent volume of distribution)” value turned out to be 1588.63 ± 636.70 L/kg.
